Reference: the CheMixHub viscosity set

Assay: xn = mol fraction of the nth substance listed

COCCOCCOCCOCCOC + ClC(Cl)(Cl)Cl
298.15 K, 101 kPa
Settings	viscosity [mPa·s]
x1 = 0.0127	0.966
x1 = 0.0282	1.01
x1 = 0.0629	1.122
x1 = 0.1168	1.311
x1 = 0.1932	1.562
x1 = 0.2437	1.723
x1 = 0.2943	1.888
x1 = 0.3592	2.081
x1 = 0.3669	2.102
x1 = 0.4164	2.242
x1 = 0.4414	2.319
x1 = 0.511	2.487
x1 = 0.5854	2.656
x1 = 0.6215	2.732
x1 = 0.6944	2.874
x1 = 0.7318	2.94
x1 = 0.7968	3.067
x1 = 0.8566	3.16
x2 = 0.0114	3.287

Clc1ccccc1 + CCOC(C)=O
viscosity [mPa·s], 101 kPa
Settings	298.15 K	308.15 K
x2 = 0.0415	0.729	0.658
x2 = 0.1504	0.669	0.607
x2 = 0.2503	0.621	0.567
x2 = 0.3519	0.58	0.531
x2 = 0.4264	0.553	0.507
x2 = 0.4878	0.534	0.489
x2 = 0.5527	0.515	0.472
x2 = 0.6519	0.489	0.448
x2 = 0.7505	0.468	0.428
x2 = 0.8515	0.449	0.409
x2 = 0.9389	0.436	0.396

CCc1ccccc1 + CO
viscosity [mPa·s], 101 kPa
Settings	x2 = 0.1406	x2 = 0.3326	x2 = 0.5278	x2 = 0.6721	x2 = 0.7828	x2 = 0.8113	x2 = 0.8848
298.15 K	0.6135	0.6134	0.6258	0.6323	0.6247	0.618	0.5991
308.15 K	0.5262	0.5283	0.5395	0.5368	0.525	0.5202	0.5052

Clc1ccccc1 + COC(=O)OC
Settings	viscosity [mPa·s]
298.15 K, 101 kPa, x2 = 0.238	0.7093

COCCOCCOCCOCCOC + CCCCO
viscosity [mPa·s], 101 kPa
Settings	298.15 K	303.15 K	308.15 K
x2 = 0.1013	–	–	2.525
x2 = 0.7991	2.165	1.945	–

Clc1cccc2ccccc12 + CCCCO
viscosity [mPa·s], 101.33 kPa
Settings	x1 = 0.1002	x1 = 0.1997	x1 = 0.2969	x1 = 0.4016	x1 = 0.5004	x1 = 0.599	x1 = 0.6949	x1 = 0.8006	x1 = 0.8969
298.15 K	2.486	2.447	2.383	2.376	2.379	2.43	2.491	2.591	2.697
303.15 K	2.176	2.149	2.11	2.102	2.109	2.153	2.207	2.301	2.414
308.15 K	1.927	1.894	1.865	1.854	1.864	1.914	1.977	2.059	2.173
